The values below come from US11427544B2, “Histone deacetylase 6 inhibitors and use thereof” (TAIPEI MEDICAL UNIVERSITY, priority 2016, dated 2022).

The structures appear in SMILES notation. Where two headings read alike, the source gives them in different places.

One test addresses T1, HDAC1 (Homo sapiens, UniProt Q13547).
T1 construct: purchased BPS Bioscience Corp
As to the kind of experiment: Fluorogenic HDAC assay, HDAC1. The conditions noted are these: recombinant HDAC1; read-out: Enzyme IC50 HDAC1. Type of test: biochemical. The text has this: (§1) Of note, there are eighteen human HDACs. Eleven of them, designated as HDAC1-11, are zinc-dependent. Seven of them, designated as Sirt1-7, are NAD+-dependent.
(§2) Fluorogenic HDAC assay kits were used to assess the ability of HDAC inhibitors to inhibit deacetylation of lysine residues on a substrate by recombinant proteins HDAC1, 3, 4, 5, 6, 7, 8, 9 and Sirt1 according to the manufacturer's instructions (BPS Bioscience Corp., San Diego, Calif., USA).

The target of the next test is T2, HDAC6 (Homo sapiens, UniProt Q9UBN7).
T2 construct: purchased BPS Bioscience Corp
T2 sequence (Q9UBN7 1-1215): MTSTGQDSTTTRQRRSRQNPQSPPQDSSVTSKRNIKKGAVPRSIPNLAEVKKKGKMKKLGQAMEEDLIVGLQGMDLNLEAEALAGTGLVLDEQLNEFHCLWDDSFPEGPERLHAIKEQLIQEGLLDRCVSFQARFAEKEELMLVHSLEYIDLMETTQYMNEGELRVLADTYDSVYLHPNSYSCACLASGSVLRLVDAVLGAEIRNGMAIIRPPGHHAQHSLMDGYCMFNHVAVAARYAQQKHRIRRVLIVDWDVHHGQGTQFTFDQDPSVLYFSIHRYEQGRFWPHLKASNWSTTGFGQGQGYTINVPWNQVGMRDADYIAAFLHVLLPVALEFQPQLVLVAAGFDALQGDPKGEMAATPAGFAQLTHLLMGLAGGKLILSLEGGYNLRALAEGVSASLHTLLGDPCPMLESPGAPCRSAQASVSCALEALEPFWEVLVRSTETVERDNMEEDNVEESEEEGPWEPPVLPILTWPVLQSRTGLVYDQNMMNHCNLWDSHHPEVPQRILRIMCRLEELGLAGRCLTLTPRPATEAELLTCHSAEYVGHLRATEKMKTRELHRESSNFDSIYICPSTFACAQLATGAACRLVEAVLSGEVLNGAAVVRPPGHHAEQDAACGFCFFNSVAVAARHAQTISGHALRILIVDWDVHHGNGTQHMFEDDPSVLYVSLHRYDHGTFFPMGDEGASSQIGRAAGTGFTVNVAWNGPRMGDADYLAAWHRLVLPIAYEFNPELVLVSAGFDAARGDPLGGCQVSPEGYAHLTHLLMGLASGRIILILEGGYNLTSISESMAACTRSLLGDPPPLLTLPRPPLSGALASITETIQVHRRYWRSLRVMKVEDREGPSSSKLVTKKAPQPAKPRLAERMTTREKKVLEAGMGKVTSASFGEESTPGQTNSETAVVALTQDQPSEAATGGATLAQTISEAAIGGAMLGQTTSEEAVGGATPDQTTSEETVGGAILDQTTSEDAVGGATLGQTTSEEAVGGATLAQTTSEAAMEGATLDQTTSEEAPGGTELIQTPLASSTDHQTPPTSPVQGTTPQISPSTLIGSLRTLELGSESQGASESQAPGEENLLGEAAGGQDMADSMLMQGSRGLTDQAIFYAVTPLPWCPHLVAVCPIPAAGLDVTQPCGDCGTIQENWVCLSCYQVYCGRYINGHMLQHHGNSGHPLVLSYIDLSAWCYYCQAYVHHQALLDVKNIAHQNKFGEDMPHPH
As to the kind of experiment: Fluorogenic HDAC assay, HDAC6. Type of test: biochemical. The note with it: recombinant HDAC6; read-out: Enzyme IC50 HDAC6.
Excerpt: as §1, §2

Test [1] relates to PC-3 prostate cancer cell line. As to the kind of experiment: Antiproliferative activity, PC-3. Type of test: cell-based, human. The method, then: (§3) A study was conducted to evaluate the inhibitory activity of compounds of Formula (I) in inhibiting HDAC6, antiproliferative activity of test compounds in suppressing cancer cell growth, and selectivity of inhibiting HDAC6 over other HDAC isoforms.
(§4) The study was performed according to the protocol reported in Hsieh et al., Cell Death and Disease, 2014, April; 5:e1166.
(§5) Shown in Table 2 below are antiproliferative activities (measured by their half maximal concentration for inhibiting cell growth, i.e., GI50) of the test compounds against various cancer cell lines.

The subject of test [2] is A549 lung cancer cell line. Briefly: Antiproliferative activity, A549. Type of test: cell-based, human. The procedure: as §3, §4, §5
For test [3], the system named is HCT116 colorectal cancer cell line. As to the kind of experiment: Antiproliferative activity, HCT116. Type of test: cell-based. The conditions noted are these: Homo sapiens, HCT-116. The method, then: as §3, §4, §5

Broadly, the IC50 is the midpoint of a concentration-inhibition curve. The term GI50 denotes the concentration that inhibits growth by half. Low values mean greater sensitivity of the cells, high ones lower sensitivity of the cells.

T1 sequence (Q13547 whole entry): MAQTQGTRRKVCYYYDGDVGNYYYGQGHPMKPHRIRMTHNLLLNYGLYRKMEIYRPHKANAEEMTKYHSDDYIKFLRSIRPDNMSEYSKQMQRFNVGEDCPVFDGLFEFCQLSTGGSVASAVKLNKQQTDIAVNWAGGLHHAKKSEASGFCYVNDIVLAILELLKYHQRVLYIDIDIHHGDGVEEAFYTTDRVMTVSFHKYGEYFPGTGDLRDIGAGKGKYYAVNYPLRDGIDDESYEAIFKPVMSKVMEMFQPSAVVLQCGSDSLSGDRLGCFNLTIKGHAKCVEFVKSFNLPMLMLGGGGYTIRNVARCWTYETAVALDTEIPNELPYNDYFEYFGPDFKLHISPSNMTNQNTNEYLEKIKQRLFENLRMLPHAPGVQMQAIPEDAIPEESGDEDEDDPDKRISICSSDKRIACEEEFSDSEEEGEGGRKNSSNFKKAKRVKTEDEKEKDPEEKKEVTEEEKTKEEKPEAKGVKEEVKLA

`O=C(NO)c1ccc(CNc2cnc3ccccc3c2)cc1` [Compound 4, N-hydroxy-4-((quinolin-3-ylamino)methyl)benzamide]: the IC50 at HDAC1 worked out at 0.78 µM; on HDAC6, 0.0191 µM. The GI50 in test [1] (Homo sapiens) came out at 1.62 ± 0.2 µM; in test [2] (Homo sapiens), 2.73 ± 0.24 µM.
Turning to `CN1CCc2c(c3ccccc3n2Cc2ccc(C(=O)NO)cc2)C1` [Tubastatin A, reference compound], the GI50 in test [1] is 48.19 ± 0.43 µM; in test [2] it was 52.2 ± 1.28 µM.
As to `Cc1ccc2cccc(NCc3ccc(C(=O)NO)cc3)c2n1` [Compound 68, N-hydroxy-4-(((2-methylquinolin-8-yl)amino)methyl)benzamide], the results for the IC50 on HDAC1 and on HDAC6 were 1.69 µM and 0.0121 µM, respectively. Also, the GI50 in test [1] (Homo sapiens) is 4.45 ± 0.92 µM; in test [2] (Homo sapiens), 5.89 ± 0.42 µM.
As to `O=C(/C=C/c1ccc(CNc2ccc3ncccc3c2)cc1)NO` [Compound 22, (E)-N-hydroxy-3-(4-((quinolin-6-ylamino)methyl)phenyl)acrylamide], the GI50 in test [1] (Homo sapiens) and in test [2] (Homo sapiens) was greater than 10 µM in each case.
As to `O=C(NO)c1ccc(CNc2cccc3ccncc23)cc1` [Compound 56, N-hydroxy-4-((isoquinolin-8-ylamino)methyl)benzamide], the GI50 in test [1] (Homo sapiens) came to 4.91 ± 0.24 µM; in test [2] (Homo sapiens), 1.76 ± 0.21 µM.
As to `O=C(NO)c1ccc(C(=O)NCc2cccc3cccnc23)cc1` [Compound 47, N^1-hydroxy-N^4-(quinolin-8-ylmethyl)terephthalamide], the concentration for 50% growth inhibition (GI50) worked out at 2.08 ± 0.1 µM in test [1] (Homo sapiens) and 7.77 ± 0.03 µM in test [2] (Homo sapiens).
Regarding `O=C(NO)c1ccc(CNc2ccc3ccccc3n2)cc1` [Compound 40, N-hydroxy-4-((quinolin-2-ylamino)methyl)benzamide], the GI50 in test [1] (Homo sapiens) stood at 0.85 ± 0.09 µM; in test [3], 0.29 ± 0.02 µM.
On to `O=C(/C=C/c1ccc(CNc2cccc3ncccc23)cc1)NO` [Compound 14, (E)-N-hydroxy-3-(4-((quinolin-5-ylamino)methyl)phenyl)acrylamide], for which the GI50 in test [1] (Homo sapiens) amounted to 0.62 ± 0.05 µM; in test [2] (Homo sapiens), 1.25 ± 0.08 µM.
On to `O=C(NO)c1ccc(CNc2ccc3ncccc3c2)cc1` [Compound 20, N-hydroxy-4-((quinolin-6-ylamino)methyl)benzamide], for which the IC50 is greater than 100 µM on HDAC1 and 0.019 µM at HDAC6. Besides, the GI50 in test [1] (Homo sapiens) and in test [2] (Homo sapiens) was greater than 10 µM each time.
As for `O=C(NO)c1ccc(C(=O)Nc2cccc3cccnc23)cc1` [Compound 32, N^1-hydroxy-N^4-(quinolin-8-yl)terephthalamide], the GI50 in test [1] (Homo sapiens) and in test [2] (Homo sapiens) was greater than 10 µM each time.
Regarding `O=C(/C=C/c1ccc(C(=O)Nc2ccc3ncccc3c2)cc1)NO` [Compound 26, (E)-4-(3-(hydroxyamino)-3-oxoprop-1-enyl)-N-(quinolin-6-yl)benzamide], the GI50 in test [1] (Homo sapiens) and in test [2] (Homo sapiens) was greater than 10 µM throughout.
On to `O=C(/C=C/c1ccc(C(=O)Nc2cccc3cccnc23)cc1)NO` [Compound 34, (E)-4-(3-(hydroxyamino)-3-oxoprop-1-enyl)-N-(quinolin-8-yl)benzamide], for which the GI50 in test [1] (Homo sapiens) came to 3.51 ± 0.18 µM; in test [2] (Homo sapiens) it was 4.26 ± 0.07 µM.
In the case of `O=C(NO)c1ccc(C(=O)Nc2cnc3ccccc3c2)cc1` [Compound 8, N^1-hydroxy-N^4-(quinolin-3-yl)terephthalamide], the GI50 in test [1] (Homo sapiens) and in test [2] (Homo sapiens) was greater than 10 µM throughout.
On to `O=C(NO)c1cccc(CNc2cccc3cccnc23)c1` [Compound 36, N-hydroxy-3-((quinolin-8-ylamino)methyl)benzamide], for which the GI50 in test [1] (Homo sapiens) and in test [3] was greater than 10 µM throughout.
Turning to `O=C(/C=C/c1ccc(C(=O)Nc2cccc3ncccc23)cc1)NO` [Compound 18, (E)-4-(3-(hydroxyamino)-3-oxoprop-1-enyl)-N-(quinolin-5-yl)benzamide], the GI50 in test [1] (Homo sapiens) and in test [2] (Homo sapiens) was greater than 10 µM in each case.
For `O=C(NO)c1ccc(CNc2cccc3cnccc23)cc1` [Compound 54, N-hydroxy-4-((isoquinolin-5-ylamino)methyl)benzamide], the values for the GI50 in test [1] (Homo sapiens) and in test [2] (Homo sapiens) were 6.06 ± 0.4 µM and 4.64 ± 0.25 µM, respectively.
`O=C(Cc1ccc(C(=O)Nc2cccc3cccnc23)cc1)NO` [Compound 50, 4-(2-(hydroxyamino)-2-oxoethyl)-N-(quinolin-8-yl)benzamide]: the GI50 in test [1] (Homo sapiens) and in test [2] (Homo sapiens) was greater than 10 µM in each case.
On to `O=C(NO)c1ccc(COc2cccc3cccnc23)cc1` [Compound 71, N-hydroxy-4-((quinolin-8-yloxy)methyl)benzamide], for which the IC50 on HDAC6 amounted to 0.011 µM. Also, the GI50 in test [1] (Homo sapiens) was 6.23 ± 0.32 µM; in test [2] (Homo sapiens), 7.81 ± 1.17 µM.
For `O=C(NO)c1ccc(NCc2cccc3cccnc23)cc1` [Compound 75, N-hydroxy-4-(quinolin-8-ylmethylamino)benzamide], the IC50 on HDAC1 came to 2.04 µM; at HDAC6, 0.011 µM. For the same compound, the concentration for 50% growth inhibition (GI50) in test [1] (Homo sapiens) was greater than 10 µM; in test [2] (Homo sapiens), 6.32 ± 0.92 µM.
As for `O=C(NO)c1ccc(CNc2ccc3cccnc3c2)cc1` [Compound 42, N-hydroxy-4-((quinolin-7-ylamino)methyl)benzamide], the GI50 in test [1] (Homo sapiens) was 2.64 ± 0.14 µM; in test [3] it was 0.62 ± 0.03 µM.
In the case of `O=C(NO)c1ccc(CCc2cccc3cccnc23)cc1` [Compound 52, N-hydroxy-4-(2-(quinolin-8-yl)ethyl)benzamide], the GI50 in test [1] (Homo sapiens) came to 9.66 ± 0.07 µM; in test [3], 3.05 ± 0.09 µM.
Consider `O=C(/C=C/c1ccc(C(=O)Nc2cnc3ccccc3c2)cc1)NO` [Compound 10, (E)-4-(3-(hydroxyamino)-3-oxoprop-1-enyl)-N-(quinolin-3-yl)benzamide], for which the GI50 in test [1] (Homo sapiens) and in test [2] (Homo sapiens) was greater than 10 µM throughout.
For `O=C(NO)c1ccc(C(=O)Nc2cccc3ncccc23)cc1` [Compound 16, N1-hydroxy-N4-(quinolin-5-yl)terephthalamide], the GI50 in test [1] (Homo sapiens) and in test [2] (Homo sapiens) was greater than 10 µM throughout.
In the case of `O=C(NO)c1ccc(CSc2cccc3cccnc23)cc1` [Compound 73, N-hydroxy-4-((quinolin-8-ylthio)methyl)benzamide], the values for the IC50 at HDAC1 and on HDAC6 were 2.2 µM and 0.0234 µM, respectively. In addition, the GI50 is 4.29 ± 0.7 µM in test [1] (Homo sapiens) and 6.11 ± 0.69 µM in test [2] (Homo sapiens).
Turning to `O=C(NO)c1cccc(C(=O)Nc2cccc3cccnc23)c1` [Compound 38, M-hydroxy-N^3-(quinolin-8-yl)isophthalamide], the GI50 in test [1] (Homo sapiens) and in test [3] was greater than 10 µM each time.
For `O=C(/C=C/c1ccc(CNc2cnc3ccccc3c2)cc1)NO` [Compound 6, (E)-N-hydroxy-3-(4-((quinolin-3-ylamino)methyl)phenyl)acrylamide], the GI50 stood at 0.38 ± 0.03 µM in test [1] (Homo sapiens) and 0.71 ± 0.01 µM in test [2] (Homo sapiens).
With `O=C(/C=C/c1ccc(CNc2cccc3cccnc23)cc1)NO` [Compound 30, (E)-N-hydroxy-3-(4-((quinolin-8-ylamino)methyl)phenyl)acrylamide], the GI50 amounted to 1.25 ± 0.02 µM in test [1] (Homo sapiens) and 1.11 ± 0.05 µM in test [2] (Homo sapiens).
In test [3], `O=C(NO)c1ccc(CNc2ccnc3ccccc23)cc1` [Compound 44, N-hydroxy-4-((quinolin-4-ylamino)methyl)benzamide] gave a GI50 of 3.28 ± 0.48 µM.
With `O=C(NO)c1ccc(C(=O)Nc2ccc3ncccc3c2)cc1` [Compound 24, N^1-hydroxy-N^4-(quinolin-6-yl)terephthalamide], the GI50 in test [1] (Homo sapiens) and in test [2] (Homo sapiens) was greater than 10 µM in each case.
